The values below come from publication PMC8508980, “Design, Synthesis and Anticancer Profile of New 4-(1H-benzo[d]imidazol-1-yl)pyrimidin-2-amine-Linked Sulfonamide Derivatives with V600EBRAF Inhibitory Effect” (International Journal of Molecular Sciences, 2021).

In one assay the test system is A375 cells. As to the kind of experiment: Antiproliferative MTT assay. The class given is cell-based. Particulars: Homo sapiens, A-375, 48 h, mean ± S.D. of two experiments. Here is the method: (§1) The effect of final target compounds over A375 and SK-MEL-5 was performed using reported procedures (detailed procedure is located in the Supplementary Information page 51s). […]
(§2) Evaluation of the Antiproliferative Activity Against A375 and SK-MEL-5
(§3) A375 and SK-MEL-5 cells were purchased from American Type Culture Collection (ATCC, Ro ckv ille, MD, USA) and maintained in Dulbecco’s modified eagle medium (DMEM, Welgene, Daegu, Republic of Korea) supplemented with 10% fetal bovine serum (FBS, Welgene, Daegu, Republic of Korea) and 1% penicillin/streptomycin (Welgene, Daegu, Republic of Korea) in a hu midified atmo sphere with 5% CO2 at 37 °C. Both cells were taken from culture substrate with 0.05% trypsin-0.02% EDTA and plated at a density of 5 × 10^3 cells/well in 96 well plates and then incubated at 37 °C fo r 24 h in a hu midified atmo sphere with 5% CO2 prior to treatment with various concentrations (3-fold serial dilution, 12 points) of the tested compounds. The cells were incubated for 48 h after treatment with the test compounds. The cell viability was assessed by the conventional 3-(4,5-dimethylthiazol-2-yl)-2,5-diphenyltetrazolium bromide (MTT) reduction assay. MTT assays were carried out with CellTiter 96® (Promega) according to the manufacturer’s instructions. The absorbance at 590 nm was recorded using EnVision 2103 (Perkin Elmer; Bo ston , MA, USA). The IC50 values were calculated using GraphPad Prism 4.0

In the next assay the test system is SK-MEL-5 cells. As to the kind of experiment: Antiproliferative MTT assay. In kind it is cell-based. The note with it: Homo sapiens, 48 h, mean ± S.D. of two experiments. Here is the method:
as §1, §2, §3
(In general: Formazan colour is commonly taken as a measure of viable cells.)

Each structure is given as a SMILES string.

In the case of `CNC(=O)c1cc(Oc2ccc(NC(=O)Nc3ccc(Cl)c(C(F)(F)F)c3)cc2)ccn1` [Sorafenib, reference compound], the IC50 in the assay on A375 cells was determined as 5.25 ± 0.74 µM; with SK-MEL-5 cells, 9.22 ± 0.81 µM.

A word on the IC50: it is the concentration at which inhibition is half-maximal.
